Results: ChEMBL document CHEMBL1799929, “Efficient sequential synthesis of PET Probes of the COX-2 inhibitor [11C]celecoxib and its major metabolite [11C]SC-62807 and in vivo PET evaluation” (Bioorg Med Chem, 2011)

How the values were obtained:
Type in all cases: ADME, organism-based
[1] = Drug uptake in Sprague-Dawley rat urine at 0.20 to 1.4 nmol/body, iv within 40 mins by gamma counting based PET imaging method; conditions: in vivo
Blood [2] = test: Drug uptake in Sprague-Dawley rat blood at 0.20 to 1.4 nmol/body, iv within 40 mins by gamma counting based PET imaging method; conditions: in vivo
[3] = Drug uptake in Sprague-Dawley rat bile at 0.20 to 1.4 nmol/body, iv within 40 mins by gamma counting based PET imaging method; conditions: in vivo
Liver [4] = test: Drug uptake in Sprague-Dawley rat liver at 0.20 to 1.4 nmol/body, iv after 2 mins by gamma counting based PET imaging method; conditions: in vivo
Liver [5] = test: Drug uptake in Sprague-Dawley rat liver at 0.20 to 1.4 nmol/body, iv within 40 mins by gamma counting based PET imaging method; conditions: in vivo
[6] = Drug uptake in Sprague-Dawley rat urinary bladder at 0.20 to 1.4 nmol/body, iv after 60 mins by gamma counting based PET imaging method; conditions: in vivo, 1 h
Kidney = test: Drug uptake in Sprague-Dawley rat kidney at 0.20 to 1.4 nmol/body, iv after 2 mins by gamma counting based PET imaging method; conditions: in vivo
Intestine = test: Drug uptake in Sprague-Dawley rat intestine at 0.20 to 1.4 nmol/body, iv after 60 mins by gamma counting based PET imaging method; conditions: in vivo, 1 h
Blood [7] = test: Drug uptake in Sprague-Dawley rat blood at 0.29 to 1.3 nmol/body, iv after 40 mins by gamma counting based PET imaging method; conditions: in vivo
Liver [8] = test: Drug uptake in Sprague-Dawley rat liver at 0.29 to 1.3 nmol/body, iv after 10 mins by gamma counting based PET imaging method; conditions: in vivo
Blood [9] = test: Drug uptake in Sprague-Dawley rat blood at 0.29 to 1.3 nmol/body, iv after 60 mins by gamma counting based PET imaging method; conditions: in vivo, 1 h

| Drug uptake [1] | Drug uptake (Blood [2]) | Drug uptake [3] | Drug uptake (Liver [4]) [%ID] | Drug uptake (Liver [5]) | Drug uptake [6] [%ID] | Drug uptake (Kidney) [%ID] | Drug uptake (Intestine) [%ID] | Drug uptake (Blood [7]) | Drug uptake (Liver [8]) | Drug uptake (Blood [9]) [%ID/ml] | SMILES |
| --- | --- | --- | --- | --- | --- | --- | --- | --- | --- | --- | --- |
| Active | Active | Active | 35 | Active | 22 | 14 | 58 | – | – | – | NS(=O)(=O)c1ccc(-n2nc(C(F)(F)F)cc2-c2ccc([11C](=O)O)cc2)cc1 |
| – | – | – | – | – | – | – | – | Active | Active | > 1 | [11CH3]c1ccc(-c2cc(C(F)(F)F)nn2-c2ccc(S(N)(=O)=O)cc2)cc1 |
